# ChEMBL document CHEMBL1144896 (2003)
# What was measured:
# NCI-H1299 [1] = assay: (§1) Compound was tested for human telomerase reverse transcriptase-SEAP (hTERT-SEAP) activity in non-small cell lung cancer H1299 cell at 2.3 uM concentration; type: functional
# BJ [2] = assay: hTERT-SEAP (Human telomerase reverse transcriptase-SEAP) activity in immortalized hTERT-BJI at 230.0 uM concentration and level of cell viability determined in MTT assay; type: functional
# BJ [3] = assay: Compound was tested for human telomerase reverse transcriptase-SEAP (hTERT-SEAP) activity in immortalized hTERT-BJI at 23 uM concentration; type: functional
# BJ [4] = assay: Compound was tested for human telomerase reverse transcriptase-SEAP (hTERT-SEAP) activity in immortalized hTERT-BJI at 230.0 uM concentration; type: functional
# BJ [5] = assay: hTERT-SEAP (Human telomerase reverse transcriptase-SEAP) activity in immortalized hTERT-BJI at 23 uM concentration and level of cell viability determined in MTT assay; type: functional
# NCI-H1299 [6] = assay: (§2) hTERT-SEAP (Human telomerase reverse transcriptase-SEAP) activity in non-small cell lung cancer H1299 cell at 2.3 uM concentration and level of cell viability determined in MTT assay; type: functional
# NCI-H1299 [7] = assay: hTERT-SEAP (Human telomerase reverse transcriptase-SEAP) activity in non-small cell lung cancer H1299 cell at 23 uM concentration and level of cell viability determined in MTT assay; type: functional
# NCI-H1299 [8] = assay: hTERT-SEAP (Human telomerase reverse transcriptase-SEAP) activity in non-small cell lung cancer H1299 cell at 230.0 uM concentration and level of cell viability determined in MTT assay; type: functional
# NCI-H1299 [9] = assay: Compound was tested for human telomerase reverse transcriptase-SEAP (hTERT-SEAP) activity in non-small cell lung cancer H1299 cell at 23 uM concentration; type: functional
# NCI-H1299 [10] = assay: Compound was tested for human telomerase reverse transcriptase-SEAP (hTERT-SEAP) activity in non-small cell lung cancer H1299 cell at 230.0 uM concentration; type: functional
# NCI-H1299 [11] = assay: as §2; type: functional; remark: listed apart in the source
# NCI-H1299 [12] = assay: as §1; type: functional; remark: listed apart in the source
# BJ [13] = assay: hTERT-SEAP (Human telomerase reverse transcriptase-SEAP) activity in immortalized hTERT-BJI at 2.2 uM concentration and level of cell viability determined in MTT assay; type: functional
# BJ [14] = assay: Compound was tested for cytomegalovirus or (pPCMV-SEAP) activity in immortalized hTERT-BJ1 at 2.2 uM concentration; type: functional, Homo sapiens
# BJ [15] = assay: Compound was tested for cytomegalovirus or (pPCMV-SEAP) activity in immortalized hTERT-BJ1 at 22 uM concentration; type: functional, Homo sapiens
# BJ [16] = assay: Compound was tested for cytomegalovirus or (pPCMV-SEAP) activity in immortalized hTERT-BJ1 at 220 uM concentration; type: functional, Homo sapiens
# BJ [17] = assay: Compound was tested for human telomerase reverse transcriptase-SEAP (hTERT-SEAP) activity in immortalized hTERT-BJI at 2.2 uM concentration; type: functional
# BJ [18] = assay: Compound was tested for human telomerase reverse transcriptase-SEAP (hTERT-SEAP) activity in immortalized hTERT-BJI at 22 uM concentration; type: functional
# BJ [19] = assay: Compound was tested for human telomerase reverse transcriptase-SEAP (hTERT-SEAP) activity in immortalized hTERT-BJI at 220.0 uM concentration; type: functional
# BJ [20] = assay: hTERT-SEAP (Human telomerase reverse transcriptase-SEAP) activity in immortalized hTERT-BJI at 22 uM concentration and level of cell viability determined in MTT assay; type: functional
# BJ [21] = assay: hTERT-SEAP (Human telomerase reverse transcriptase-SEAP) activity in immortalized hTERT-BJI at 220.0 uM concentration and level of cell viability determined in MTT assay; type: functional
# BJ [22] = assay: pPCMV-SEAP (cytomegalovirus-SEAP) activity in immortalized hTERT-BJ1 at 220 uM concentration and level of cell viability determined in MTT assay; type: functional, Homo sapiens
# BJ [23] = assay: pPCMV-SEAP (cytomegalovirus-SEAP) activity in immortalized hTERT-BJ1 at 2.2 uM concentration and level of cell viability determined in MTT assay; type: functional, Homo sapiens
# BJ [24] = assay: pPCMV-SEAP (cytomegalovirus-SEAP) activity in immortalized hTERT-BJ1 at 22 uM concentration and level of cell viability determined in MTT assay; type: functional, Homo sapiens
# NCI-H1299 [25] = assay: hTERT-SEAP (Human telomerase reverse transcriptase-SEAP) activity in non-small cell lung cancer H1299 cell at 22 uM concentration and level of cell viability determined in MTT assay; type: functional
# NCI-H1299 [26] = assay: hTERT-SEAP (Human telomerase reverse transcriptase-SEAP) activity in non-small cell lung cancer H1299 cell at 220.0 uM concentration and level of cell viability determined in MTT assay; type: functional
# NCI-H1299 [27] = assay: Compound was tested for human telomerase reverse transcriptase-SEAP (hTERT-SEAP) activity in non-small cell lung cancer H1299 cell at 22 uM concentration; type: functional
# NCI-H1299 [28] = assay: Compound was tested for human telomerase reverse transcriptase-SEAP (hTERT-SEAP) activity in non-small cell lung cancer H1299 cell at 220.0 uM concentration; type: functional
# NCI-H1299 [29] = assay: Compound was tested for human telomerase reverse transcriptase-SEAP (hTERT-SEAP) activity in non-small cell lung cancer H1299 cell at 2.2 uM concentration; type: functional
# NCI-H1299 [30] = assay: hTERT-SEAP (Human telomerase reverse transcriptase-SEAP) activity in non-small cell lung cancer H1299 cell at 2.2 uM concentration and level of cell viability determined in MTT assay; type: functional
# BJ [31] = assay: hTERT-SEAP (Human telomerase reverse transcriptase-SEAP) activity in immortalized hTERT-BJI at 2.8 uM concentration and level of cell viability determined in MTT assay; type: functional
# BJ [32] = assay: hTERT-SEAP (Human telomerase reverse transcriptase-SEAP) activity in immortalized hTERT-BJI at 28.0 uM concentration and level of cell viability determined in MTT assay; type: functional
# BJ [33] = assay: hTERT-SEAP (Human telomerase reverse transcriptase-SEAP) activity in immortalized hTERT-BJI at 280.0 uM concentration and level of cell viability determined in MTT assay; type: functional
# BJ [34] = assay: Compound was tested for human telomerase reverse transcriptase-SEAP (hTERT-SEAP) activity in immortalized hTERT-BJI at 28.0 uM concentration; type: functional
# BJ [35] = assay: Compound was tested for human telomerase reverse transcriptase-SEAP (hTERT-SEAP) activity in immortalized hTERT-BJI at 280.0 uM concentration; type: functional
# BJ [36] = assay: Compound was tested for human telomerase reverse transcriptase-SEAP (hTERT-SEAP) activity in immortalized hTERT-BJI at 2.8 uM concentration; type: functional
# NCI-H1299 [37] = assay: hTERT-SEAP (Human telomerase reverse transcriptase-SEAP) activity in non-small cell lung cancer H1299 cell at 2.8 uM concentration and level of cell viability determined in MTT assay; type: functional
# NCI-H1299 [38] = assay: Compound was tested for human telomerase reverse transcriptase-SEAP (hTERT-SEAP) activity in non-small cell lung cancer H1299 cell at 28.0 uM concentration; type: functional
# NCI-H1299 [39] = assay: Compound was tested for human telomerase reverse transcriptase-SEAP (hTERT-SEAP) activity in non-small cell lung cancer H1299 cell at 280.0 uM concentration; type: functional
# NCI-H1299 [40] = assay: hTERT-SEAP (Human telomerase reverse transcriptase-SEAP) activity in non-small cell lung cancer H1299 cell at 28 uM concentration and level of cell viability determined in MTT assay; type: functional
# NCI-H1299 [41] = assay: hTERT-SEAP (Human telomerase reverse transcriptase-SEAP) activity in non-small cell lung cancer H1299 cell at 280.0 uM concentration and level of cell viability determined in MTT assay; type: functional
# NCI-H1299 [42] = assay: Compound was tested for human telomerase reverse transcriptase-SEAP (hTERT-SEAP) activity in non-small cell lung cancer H1299 cell at 2.8 uM concentration; type: functional
# BJ [43] = assay: hTERT-SEAP (Human telomerase reverse transcriptase-SEAP) activity in immortalized hTERT-BJI at 19 uM concentration and level of cell viability determined in MTT assay; type: functional
# BJ [44] = assay: hTERT-SEAP (Human telomerase reverse transcriptase-SEAP) activity in immortalized hTERT-BJI at 190.0 uM concentration and level of cell viability determined in MTT assay; type: functional
# BJ [45] = assay: Compound was tested for human telomerase reverse transcriptase-SEAP (hTERT-SEAP) activity in immortalized hTERT-BJI at 19 uM concentration; type: functional
# BJ [46] = assay: Compound was tested for human telomerase reverse transcriptase-SEAP (hTERT-SEAP) activity in immortalized hTERT-BJI at 190.0 uM concentration; type: functional
# NCI-H1299 [47] = assay: Compound was tested for human telomerase reverse transcriptase-SEAP (hTERT-SEAP) activity in non-small cell lung cancer H1299 cell at 1.9 uM concentration; type: functional
# NCI-H1299 [48] = assay: Compound was tested for human telomerase reverse transcriptase-SEAP (hTERT-SEAP) activity in non-small cell lung cancer H1299 cell at 19 uM concentration; type: functional
# NCI-H1299 [49] = assay: hTERT-SEAP (Human telomerase reverse transcriptase-SEAP) activity in non-small cell lung cancer H1299 cell at 1.9 uM concentration and level of cell viability determined in MTT assay; type: functional
# NCI-H1299 [50] = assay: hTERT-SEAP (Human telomerase reverse transcriptase-SEAP) activity in non-small cell lung cancer H1299 cell at 19 uM concentration and level of cell viability determined in MTT assay; type: functional
# NCI-H1299 [51] = assay: Compound was tested for human telomerase reverse transcriptase-SEAP (hTERT-SEAP) activity in non-small cell lung cancer H1299 cell at 190.0 uM concentration; type: functional
# NCI-H1299 [52] = assay: hTERT-SEAP (Human telomerase reverse transcriptase-SEAP) activity in non-small cell lung cancer H1299 cell at 190.0 uM concentration and level of cell viability determined in MTT assay; type: functional
smiles,measurement,setting,value
O=C1c2cccc(Sc3ccncc3)c2C(=O)c2cccc(Sc3ccncc3)c21,Relative SEAP activity,NCI-H1299 [1],98%
same,Relative viability,BJ [2],55%
same,Relative SEAP activity,BJ [3],133%
same,Relative SEAP activity,BJ [4],121%
same,Relative viability,BJ [5],91%
same,Relative viability,NCI-H1299 [6],112%
same,Relative viability,NCI-H1299 [7],45%
same,Relative viability,NCI-H1299 [8],29%
same,Relative SEAP activity,NCI-H1299 [9],103%
same,Relative SEAP activity,NCI-H1299 [10],89%
same,Relative viability,NCI-H1299 [11],79%
same,Relative SEAP activity,NCI-H1299 [12],104%
O=C1c2cccc(Sc3nccc(O)n3)c2C(=O)c2cccc(Sc3nccc(O)n3)c21,Relative viability,BJ [13],104%
same,Relative SEAP activity,BJ [14],112%
same,Relative SEAP activity,BJ [15],105%
same,Relative SEAP activity,BJ [16],120%
same,Relative SEAP activity,BJ [17],93%
same,Relative SEAP activity,BJ [18],116%
same,Relative SEAP activity,BJ [19],145%
same,Relative viability,BJ [20],106%
same,Relative viability,BJ [21],89%
same,Relative viability,BJ [22],78%
same,Relative viability,BJ [23],107%
same,Relative viability,BJ [24],118%
same,Relative viability,NCI-H1299 [25],95%
same,Relative viability,NCI-H1299 [26],51%
same,Relative SEAP activity,NCI-H1299 [27],97%
same,Relative SEAP activity,NCI-H1299 [28],93%
same,Relative SEAP activity,NCI-H1299 [29],92%
same,Relative viability,NCI-H1299 [30],99%
CCCSc1cccc2c1C(=O)c1cccc(SCCC)c1C2=O,Relative viability,BJ [31],103%
same,Relative viability,BJ [32],97%
same,Relative viability,BJ [33],39%
same,Relative SEAP activity,BJ [34],110%
same,Relative SEAP activity,BJ [35],122%
same,Relative SEAP activity,BJ [36],132%
same,Relative viability,NCI-H1299 [37],96%
same,Relative SEAP activity,NCI-H1299 [38],29%
same,Relative SEAP activity,NCI-H1299 [39],17%
same,Relative viability,NCI-H1299 [40],44%
same,Relative viability,NCI-H1299 [41],25%
same,Relative SEAP activity,NCI-H1299 [42],73%
O=C(Oc1cccc2c1C(=O)c1cccc(OC(=O)c3cccc(Cl)c3)c1C2=O)c1cccc(Cl)c1,Relative viability,BJ [43],80%
same,Relative viability,BJ [44],44%
same,Relative SEAP activity,BJ [45],152%
same,Relative SEAP activity,BJ [46],91%
same,Relative SEAP activity,NCI-H1299 [47],83%
same,Relative SEAP activity,NCI-H1299 [48],92%
same,Relative viability,NCI-H1299 [49],98%
same,Relative viability,NCI-H1299 [50],88%
same,Relative SEAP activity,NCI-H1299 [51],81%
same,Relative viability,NCI-H1299 [52],46%
